Data reported in article PMC9785921, “Evaluation of Chiral Organosulfur Compounds on Their Activity against the Malaria Parasite Plasmodium falciparum” (Tropical Medicine and Infectious Disease, 2022).
Where two headings read alike, the source gives them in different places.

Tests used:
[1] = test system: P. falciparum 3D7 strain; assay: Malstat assay, asexual blood stages, CQ-sensitive strain 3D7; type: cell-based; conditions: Plasmodium falciparum; for IC50: read-out: IC50 (µM) CQ-Sensitive Strain 3D7; for IC90: 90% inhibitory concentration estimated from the IC50
Experimental: (§1) Three P. falciparum strains were used for compound testing; a strain sensitive to chloroquine (CQ) 3D7, CQ-resistant strain Dd2 and P. falciparum gametocyte producing NF54 strain. The 3D7 and Dd2 strains were used to investigate the effect of the compounds on asexual blood stage replication. They were cultured in RPMI 1640/HEPES medium (Gibco, Thermo Scientific, Waltham, MA, USA) containing 10 µg/mL gentamicin (Gibco Thermo Scientific, Waltham, MA, USA,), 50 µg/mL hypoxanthine (Sigma-Aldrich, St. Louis, MO, USA), 0.5% v/v Albumax II (Gibco, Thermo Scientific, Waltham, MA, USA) and 5% hematocrit. Cultures were maintained at 37 °C using a gas mixture containing 5% CO2, 5% O2 and 90% N2. […] To obtain highly synchronized cultures, parasite cultures consisting mainly of ring stages were centrifuged, the pellet was resuspended in 10 mL of 5% w/v sorbitol/ddH20 and incubated for 10 min at room temperature. After washing the cells with RPMI to remove residual sorbitol, they were again cultivated, as described above. Erythrocyte concentrate and serum samples were obtained from the Department of Transfusion Medicine, University Hospital Aachen, Germany. The serum samples were mixed and pooled and donors were kept anonymous. The work with blood components from humans was approved by the Ethics commission of the RWTH University Hospital (EK 007/13).
(§2) The antiplasmodial effect of the compounds on P. falciparum asexual blood stage development was carried out using the Malstat assay, as described previously. Compounds dissolved in dimethyl sulfoxide (DMSO) were added to 1% ring stage P. falciparum 3D7 and Dd2 cultures (200 µL/well) in a 96-well plate in triplicate at final concentrations ranging from 100 µM to 0.78 µM. […] CQ at concentrations ranging from 500 nM to 4 nM was used as an internal control in the experiments, while parasites treated with 0.5% v/v DMSO served as the negative control. The parasites were cultured with the compounds for 72 h at 37 °C in the presence of the following gas combination: 5% O2, 5% CO2, and 90% N2. Afterwards, 20 µL of the incubated culture was removed and 100 µL of Malstat reagent (0.1% v/v Triton X-100, 1 g of L-lactate, 0.33 g Tris and 33 mg of 3-acetylpyridine adenine dinucleotide in 100 mL of distilled water, pH 9.0) was added in a new 96-well microtiter plate. Next, 20 µL mixture of NBT/Diaphorase (1:1; 1 mg/mL stock each) was added to the Malstat reaction and the parasite lactate dehydrogenase activity was then quantified by measuring the optical densities at 630 nm. IC50 values were then determined from variable-slope sigmoidal dose-response graphs using the GraphPad Prism program version 5 (GraphPad Software Inc., La Jolla, San Diego, CA, USA).

[2] = test system: P. falciparum Dd2 strain; assay: Malstat assay, asexual blood stages, CQ-resistant strain Dd2; type: cell-based; conditions: Plasmodium falciparum, read-out: IC50 (µM) CQ-Resistant Strain Dd2
Experimental: as §1, §2

[3] = test system: P. falciparum NF54 gametocytes; assay: Gametocyte toxicity test; type: cell-based, Plasmodium falciparum; conditions: 48 h treatment, then 7 d drug-free; for reduction of mature gametocyte numbers (in words) / reduction of mature gametocyte numbers: compound at IC50 concentration; for reduction in stage IV and V gametocyte numbers: compound at IC90 concentration
Experimental: as §1
P. falciparum NF54 parasites were cultured at high parasitemia to induce gametocyte formation. Once stage II gametocytes appeared, 1 mL of culture was aliquoted in triplicate in a 24-well plate with compounds at the respective IC50 and IC90 concentrations that was determined from Malstat assay. The gametocytes were again cultivated for 9 d with the daily replacement of medium. For the first 48 h of cultivation, the gametocytes were treated with test compounds, and subsequently compound free medium was used. On day 9, blood smears were prepared and stained with Giemsa and the gametocytemia was determined by counting the numbers of gametocytes stages IV and V in a total number of 1000 erythrocytes.
Figure 3 Effect of organosulfur compounds on gametocyte development. Cultures rich in stage II gametocyte were incubated with compounds at IC50 and IC90 concentrations for 2 d, and again cultivated for another 7 d with daily replacement of medium. The numbers of stage IV and V gametocytes were determined from Giemsa smears and normalized to 0.5% v/v DMSO treatment which served as negative control (set to 100%). Epoxomicin (Epoxo) at 60 nM served as positive control.

[4] = test system: non-infected erythrocytes; assay: Hemolytic assay; type: cell-based, human; conditions: IC50 and IC90 concentrations, 48 h, 37 °C, compared with 0.5% v/v DMSO
Experimental: Since the malaria parasite replicates in the red blood cell, we determined if the compounds have an effect on non-infected erythrocytes using hemolytic assays. To this end, 1 mL of washed uninfected erythrocytes at 5% hematocrit in regular medium was plated in triplicate in a 96-well plate (200 µL/well) in the presence of compounds at IC50 and IC90 concentrations. Erythrocytes treated with 0.15% w/v saponin were used as lysis control and 0.5% v/v DMSO was used as the negative control. Following 48 h of incubation at 37 °C, the plate was centrifuged at 500× g for 2 min and 100 µL of the supernatant was transferred to another plate and the absorbance was measured at 550 nm with a spectrophotometer.
(§3) Figure 4 Hemolytic and cytotoxic effect of compounds. (a) Hemolytic effect of compounds. […] The absorbance of free hemoglobin was measured at OD550 nm in the supernatant and normalized to 0.15% w/v saponin (set to 100%), which served as positive control in the experiments. 0.5% v/v DMSO was used as negative control. (b) Cytotoxicity effect of compounds on Hela cells. The cells were plated in 96-well microtiter plates and cultured overnight at 37 °C. The following day, the old medium was removed and 100 µL of fresh medium containing serially diluted compounds in corresponding wells at final concentrations ranging from 100 µM to 0.8 µM was added and the culture was incubated for 72 h. After incubation, the medium was replaced by 100 µL fresh drug-free medium and 20 µL MTT (5 mg/mL) was added in each well and incubated for 3 h at 37 °C. After 3 h, the MTT preparation was then removed from each well and 100 µL solubilization solution was added. Plates were then placed on a rotator at about 500 rpm at RT until the formazan precipitate was completely resuspended and the OD was measured at 450 nm. The data are representative of three independent experiments.

[5] = MTT cytotoxicity assay, Hela cells; type: cell-based; conditions: human, Hela cells (human cervical cancer cell line); for viability at 72 h: about 25 µM
Experimental: The MTT [3-(4,5-dimethylthiazol-2-yl)-2,5-diphenyltetrazolium bromide] assay was performed using the human cervical cancer cell (Hela) line and the hematologic malignancy human erythroleukemia (HEL) cell line to determine if the compounds were toxic (loss of viability) against human cells. MTT is taken up by viable cells and converted by mitochondrial dehydrogenases to a violet formazan product that cannot diffuse through cell membranes, and therefore crystallizes in viable cells. The adherent Hela cells were plated in 96-well microtiter plates and cultured at 37 °C overnight. Compounds were added to the cultures in different serial concentrations in triplicate the next day, and the cells were incubated for 72 h. DMSO was used as the negative control at a final concentration of 0.5% v/v, and a concentration of 15% v/v DMSO which is toxic was added as the positive control. After 72 h of drug treatment, medium-containing drug was replaced with 100 µL fresh drug-free medium. Then, 20 µL MTT (5 mg/mL) was added to each well and incubated for 3 h at 37 °C. The medium was subsequently removed and 100 µL solubilization solution (5% w/v SDS, 0.1 M HCl in 100% vol. DMSO) was added and incubated for 30 min under rotation at room temperature to solubilize the formazan crystals.
For both cell lines, the optical density (OD) of the solution was measured at 550 nm. The OD-values of cultures treated with compounds were normalized to the OD-values of 0.5% v/v DMSO control (set to 100% viability for Hela or 1 for HEL cell line). IC50 values were calculated from MTT assays using Graphpad Prism (V9).
as §3

[6] = 3D7, ring stage parasites, 72 h, Malstat (plasmodial LDH)
[7] = DD2, ring stage parasites, 72 h, Malstat

For `CCN(CC)CCCC(C)Nc1ccnc2cc(Cl)ccc12` (stereo not drawn) [Chloroquine, reference compound], the IC50 ([1]; 3D7, 72 h) was 0.02 ± 0.004 µM and the IC50 ([2]; DD2, 72 h) was 0.14 ± 0.063 µM.

In the case of `CCOC(=O)C1=C(C)N=S2(=NC(c3ccccc3)=CC(c3ccccc3)=C2)c2ccccc21` (stereo not drawn) [Compound 1], the IC50 [1, 6] is reported as 3.8 ± 0.66 µM, the IC90 ([1]; 3D7) is reported as 34.2 µM and the “reduction of mature gametocyte numbers (in words)” value (“reduction … (in words)” below) [3] is reported as “only minor reduction”. For the same compound, the “reduction in stage IV and V gametocyte numbers” value [3] was “very high reduction”, the hemolytic effect [4] was “no hemolytic effect” and the viability at 72 h, 50 µM [5] was over 60%. For the same compound, the viability at 72 h [5] was over 90%.

For `CCOC(=O)C1=C(C)N=S2(=NC(c3ccccc3)=CC(c3ccc(Cl)cc3)=C2)c2ccccc21` (stereo not drawn) [Compound 2], the IC50 [1, 6] was 3.12 ± 0.58 µM, the IC90 ([1]; 3D7) was 27.9 µM and the “reduction … (in words)” value [3] was “only minor reduction”. The “reduction in stage IV and V gametocyte numbers” value [3] was “very high reduction”, the hemolytic effect [4] was “no hemolytic effect” and the viability at 72 h, 50 µM [5] was over 60%. It also gave a viability at 72 h [5] of over 90%.

With `O=S1(c2ccc(Br)cc2)=NC(c2ccccc2)=CC(c2ccc(Cl)cc2)=N1` (stereo not drawn) [Compound 3] the IC50 [1, 6] was 22.1 ± 1.06 µM.

`CCOC(=O)C1=C(c2cccs2)N=S(=O)(N2CCCCCC2)c2c1cc1ccccc1c2Cl` (stereo not drawn) [Compound 4] showed an IC50 [1, 6] of 9.1 ± 2.59 µM.

With `O=S1(N2CCCCCC2)=NC(c2ccc(Br)cc2)=Cc2ccccc21` (stereo not drawn) [Compound 6] the IC50 [1, 6] was 10.6 ± 1.53 µM.

`CCOC(=O)C1=C(c2cccs2)N=S(=O)(N2CCCCCC2)c2c(C)cccc21` (stereo not drawn) [Compound 7] showed an IC50 [1, 6] of 35.8 ± 5.11 µM.

With `Cc1cccc2c1S(=O)(N1CCCCCC1)=NC(c1ccc(Br)cc1)=C2` (stereo not drawn) [Compound 8] the IC50 [1, 6] was 12.5 ± 3.27 µM.

Work on `CC(C)(C)c1ccc2c(c1)C=C(c1ccccc1)N=S2(=O)N1CCCCCC1` (stereo not drawn) [Compound 9] yielded an IC50 [1, 6] of 3.3 ± 1.56 µM, an IC90 ([1]; 3D7) of 29.7 µM and an IC50 [2, 7] of 6.5 ± 0.87 µM. The “reduction of mature gametocyte numbers” value [3] was “about 50%”, the hemolytic effect [4] was “no hemolytic effect” and the viability at 72 h, 50 µM [5] was over 60%. The viability at 72 h [5] was over 90%.

`O=S1(N2CCCCCC2)=NC(c2ccccc2)=Cc2ccccc21` (stereo not drawn) [Compound 10] gave an IC50 [1, 6] of 46.4 ± 2.67 µM.

`CCOC(=O)C1=C(C)N=S(=O)(N2CCCCCC2)c2ccc(C)cc21` (stereo not drawn) [Compound 11] gave an IC50 [1, 6] of 12 ± 4.28 µM.

In the case of `Cc1ccc2c(c1)C=C(c1ccccc1)N=S2(=O)N1CCCCCC1` (stereo not drawn) [Compound 12], the IC50 [1, 6] is reported as 21.3 ± 4.05 µM.

`O=S1(N2CCCCCC2)=NC(c2ccccc2)=Cc2cccc(Cl)c21` (stereo not drawn) [Compound 13] showed an IC50 [1, 6] of 20.3 ± 1.69 µM.

For `O=[N+]([O-])c1ccc2c(c1)C=C(c1ccccc1)N=S2(=O)N1CCCCCC1` (stereo not drawn) [Compound 14], the IC50 [1, 6] was 10.3 ± 0.9 µM.

For `CCOC(=O)C1=C(C)N=S(=O)(N2CCCCCC2)c2ccc([N+](=O)[O-])cc21` (stereo not drawn) [Compound 15], the IC50 [1, 6] was 5.2 ± 1.95 µM, the IC90 ([1]; 3D7) was 46.8 µM and the “reduction … (in words)” value [3] was “only minor reduction”. The “reduction in stage IV and V gametocyte numbers” value [3] was “very high reduction”, the hemolytic effect [4] was “no hemolytic effect” and the viability at 72 h, 50 µM [5] was over 60%. It also gave a viability at 72 h [5] of over 90%.

In the case of `CCOC(=O)C1=C(c2ccc(C)cc2)N=S(=O)(N2CCCCCC2)c2ccccc21` (stereo not drawn) [Compound 16], the IC50 [1, 6] is reported as 3.1 ± 0.26 µM, the IC90 ([1]; 3D7) is reported as 27.9 µM and the IC50 [2, 7] is reported as 4.4 ± 0.59 µM. The “reduction of mature gametocyte numbers” value [3] was “about 50%”, the hemolytic effect [4] was “no hemolytic effect” and the viability at 72 h, 50 µM [5] was over 60%. The viability at 72 h [5] was over 90%.

For `CCOC(=O)C1=C(c2ccc(C)cc2)N=S(=O)(N2CCCCCC2)c2ccc(C)cc21` (stereo not drawn) [Compound 17], the IC50 [1, 6] was 2.6 ± 0.7 µM, the IC90 ([1]; 3D7) was 23.4 µM and the IC50 [2, 7] was 4 ± 0.28 µM. The “reduction of mature gametocyte numbers” value [3] was “about 50%”, the hemolytic effect [4] was “no hemolytic effect” and the viability at 72 h, 50 µM [5] was over 60%. The viability at 72 h [5] was over 90%.

`CCOC(=O)C1=C(c2ccccc2)N=S(=O)(N2CCCCCC2)c2ccccc21` (stereo not drawn) [Compound 18] showed an IC50 [1, 6] of 26.5 ± 1.19 µM.

For `CCOC(=O)C1=C(c2cccs2)N=S(=O)(N2CCCCCC2)c2ccccc21` (stereo not drawn) [Compound 19], the IC50 [1, 6] was 31.5 ± 4.9 µM.

Work on `CN1CCC[C@H](NC(=S)Nc2cc(C(F)(F)F)cc(C(F)(F)F)c2)C1` [Compound 20] yielded an IC50 [1, 6] of 8 ± 0.53 µM.

In the case of `CC(C)C[C@@H](CN=[S@](C)(=O)c1ccccc1)NC(=S)Nc1cc(C(F)(F)F)cc(C(F)(F)F)c1` [Compound 21], the IC50 [1, 6] is reported as 14.1 ± 1.5 µM.

In the case of `CC(C)[C@@H](CN=[S@@](C)(=O)c1ccccc1)NC(=S)Nc1cc(C(F)(F)F)cc(C(F)(F)F)c1` [Compound 22], the IC50 [1, 6] is reported as 15.9 ± 1.46 µM.

Compound `O=[S@@]1(c2ccccc2)=Nc2ccccc2-c2ncc3ccccc3c21` [Compound 23] has an IC50 [1, 6] of 24.9 ± 1.06 µM.
